The values below come from patent publication US20140155376A1, “PYRROLOPYRAZINE KINASE INHIBITORS” (Hoffmann-La Roche Inc., priority 2010, published 2014).

The target in the test is T1, JAK3 (recombinant human kinase domain; h-jak3(810-1124)) (Homo sapiens, UniProt P52333).
T1 construct: h-jak3(810- 1124)-sf9-c; made in house; host or cells: Sf9 insect cells
T1 sequence (P52333 810-1124): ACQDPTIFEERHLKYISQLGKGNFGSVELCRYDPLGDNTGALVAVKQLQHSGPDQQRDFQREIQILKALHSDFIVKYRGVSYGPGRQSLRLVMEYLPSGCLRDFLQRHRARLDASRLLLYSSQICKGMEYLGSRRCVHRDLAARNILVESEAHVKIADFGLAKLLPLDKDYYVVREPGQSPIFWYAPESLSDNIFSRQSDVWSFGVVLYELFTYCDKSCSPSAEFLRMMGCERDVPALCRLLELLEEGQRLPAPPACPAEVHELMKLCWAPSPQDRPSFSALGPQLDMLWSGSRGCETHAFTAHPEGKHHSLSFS
Kind of test: Determination of IC50 of Janus Kinase (JAK) inhibition: JAK3, radioactive end-point assay with 33P-ATP. It is filed as biochemical. The following applies: JAK3 kinase domain; ATP 1.5 uM, peptide 50 uM, 20 minutes, room temperature, 10% DMSO; read-out: Ic50 h-jak3(810-1124)-sf9-c:no additive.
In the case of `C[C@H](NC(=O)c1c[nH]c2ncc(-c3cnn(C)c3)nc12)C1CCCCC1` [Example I-140, 2-(1-Methyl-1H-pyrazol-4-yl)-5H-pyrrolo[2,3-b]pyrazine-7-carboxylic acid ((S)-1-cyclohexyl-ethyl)-amide], the IC50 amounted to 0.00088 µM.

Regarding `CC(C)NC(=O)c1c[nH]c2ncc(Oc3cccc4c3OC(C)(C)C4)nc12` [Example I-254, 2-(2,2-Dimethyl-2,3-dihydro-benzofuran-7-yloxy)-5H-pyrrolo[2,3-b]pyrazine-7-carboxylic acid isopropylamide], the concentration for half-maximal inhibition (IC50) worked out at 2.99 µM.

For `CCNC(=O)c1c[nH]c2ncc(Oc3ccc4ccccc4c3)nc12` [Example I-262, 2-(Naphthalen-2-yloxy)-5H-pyrrolo[2,3-b]pyrazine-7-carboxylic acid ethylamide], the IC50 was found to be 1.87 µM.

Turning to `C[C@H](NC(=O)c1c[nH]c2ncc(C3CC3)nc12)C1(C#N)CCCC1` [Example I-101, 2-Cyclopropyl-5H-pyrrolo[2,3-b]pyrazine-7-carboxylic acid [(S)-1-(1-cyano-cyclopentyl)-ethyl]-amide], the IC50 amounted to 0.012 µM.

With `CC(NC(=O)c1c[nH]c2ncc(C3CC3)nc12)C1CCOCC1` (centres unmarked) [Example I-85, 2-Cyclopropyl-5H-pyrrolo[2,3-b]pyrazine-7-carboxylic acid [1-(tetrahydro-pyran-4-yl)-ethyl]-amide], the concentration for half-maximal inhibition (IC50) came out at 0.0725 µM.

Turning to `CC1CCCCC1NC(=O)c1ccc(-c2cnc3[nH]cc(C(=O)N[C@@H](C)C(C)(C)C)c3n2)s1` (stereo partly drawn) [Example I-190, 2-[5-(2-Methyl-cyclohexyl-carbamoyl)-thiophen-2-yl]-5H-pyrrolo[2,3-b]pyrazine-7-carboxylic acid ((S)-1,2,2-trimethyl-propyl)-amide], the IC50 was 0.00069 µM. In the case of `CC(C)NC(=O)c1c[nH]c2ncc(Oc3cccc(C(C)(C)C)c3)nc12` [Example I-231, 2-(3-tert-Butyl-phenoxy)-5H-pyrrolo[2,3-b]pyrazine-7-carboxylic acid isopropylamide], the IC50 turned out to be 4.22 µM. As to `CCN(CC)C(=O)c1ccc(-c2cnc3[nH]cc(C(=O)N[C@@H](C)C(C)(C)C)c3n2)s1` [Example I-160, 2-(5-Diethylcarbamoyl-thiophen-2-yl)-5H-pyrrolo[2,3-b]pyrazine-7-carboxylic acid ((S)-1,2,2-trimethyl-propyl)-amide], the half-inhibitory concentration (IC50) is 0.00032 µM. For `C[C@H](NC(=O)c1c[nH]c2ncc(Oc3ccccc3)nc12)C(C)(C)C` [Example I-120, 2-Phenoxy-5H-pyrrolo[2,3-b]pyrazine-7-carboxylic acid ((S)-1,2,2-trimethyl-propyl)-amide], the IC50 was 0.0244 µM. The figure for `CCNC(=O)c1c[nH]c2ncc(Oc3cccc(C(F)(F)F)c3)nc12` [Example I-251, 2-(3-Trifluoromethyl-phenoxy)-5H-pyrrolo[2,3-b]pyrazine-7-carboxylic acid ethylamide] is 4.03 µM.

`CCNC(=O)c1c[nH]c2ncc(Oc3cc(OC)cc(OC)c3)nc12` [Example I-263, 2-(3,5-Dimethoxy-phenoxy)-5H-pyrrolo[2,3-b]pyrazine-7-carboxylic acid ethylamide]: the IC50 stood at 2.35 µM. Then `CCC(CC)NC(=O)c1c[nH]c2ncc(C3CC3)nc12` [Example I-26, 2-Cyclopropyl-5H-pyrrolo[2,3-b]pyrazine-7-carboxylic acid (1-ethyl-propyl)-amide], with 0.00408 µM.

As to `CC(NC(=O)c1ccc(-c2cnc3[nH]cc(C(=O)N[C@@H](C)C(C)(C)C)c3n2)s1)c1ccc(F)cc1` (stereo partly drawn) [Example I-195, 2-{5-[1-(4-Fluoro-phenyl)-ethylcarbamoyl]-thiophen-2-yl}-5H-pyrrolo[2,3-b]pyrazine-7-carboxylic acid ((S)-1,2,2-trimethyl-propyl)-amide], the IC50 turned out to be 0.00046 µM. For `C[C@@H](NC(=O)c1c[nH]c2ncc(C3CC3)nc12)c1ccccc1` [Example I-66, 2-Cyclopropyl-5H-pyrrolo[2,3-b]pyrazine-7-carboxylic acid ((R)-1-phenyl-ethyl)-amide], the IC50 was found to be 0.05 µM. As to `CCNC(=O)c1c[nH]c2ncc(Oc3cccc4[nH]ccc34)nc12` [Example I-275, 2-(1H-Indol-4-yloxy)-5H-pyrrolo[2,3-b]pyrazine-7-carboxylic acid ethylamide], the IC50 was determined as 0.626 µM. Then `C[C@H](NC(=O)c1c[nH]c2ncc(Oc3ccccc3)nc12)C(C)(C)O` [Example I-128, 2-Phenoxy-5H-pyrrolo[2,3-b]pyrazine-7-carboxylic acid ((S)-2-hydroxy-1,2-dimethyl-propyl)-amide], with 0.211 µM. Take `COCC(C)(C)CNC(=O)c1c[nH]c2ncc(C3CC3)nc12` [Example I-59, 2-Cyclopropyl-5H-pyrrolo[2,3-b]pyrazine-7-carboxylic acid (3-methoxy-2,2-dimethyl-propyl)-amide]: the IC50 came out at 0.0589 µM. `Cc1ccc([C@@H](C)NC(=O)c2ccc(-c3cnc4[nH]cc(C(=O)N[C@@H](C)C(C)(C)C)c4n3)s2)cc1` [Example I-202, 2-[5-((R)-1-p-Tolyl-ethylcarbamoyl)-thiophen-2-yl]-5H-pyrrolo[2,3-b]pyrazine-7-carboxylic acid ((S)-1,2,2-trimethyl-propyl)-amide]: the IC50 was found to be 0.00052 µM. For the compound `CC(NC(=O)c1c[nH]c2ncc(C3CC3)nc12)c1ccccn1` (centres unmarked) [Example I-70, 2-Cyclopropyl-5H-pyrrolo[2,3-b]pyrazine-7-carboxylic acid (1-pyridin-2-yl-ethyl)-amide], the half-inhibitory concentration (IC50) stood at 0.087 µM. The figure for `N#CCCCNC(=O)c1c[nH]c2ncc(C3CC3)nc12` [Example I-33, 2-Cyclopropyl-5H-pyrrolo[2,3-b]pyrazine-7-carboxylic acid (3-cyano-propyl)-amide] is 0.493 µM; for `C[C@@H](NC(=O)c1c[nH]c2ncc(Oc3ccc(F)cc3F)nc12)C1CCCCC1` [Example I-124, 2-(2,4-Difluoro-phenoxy)-5H-pyrrolo[2,3-b]pyrazine-7-carboxylic acid ((R)-1-cyclohexyl-ethyl)-amide] it is 0.442 µM; for `C[C@@H](NC(=O)c1c[nH]c2ncc(C3CC3)nc12)C(C)(C)C` [Example I-62, 2-Cyclopropyl-5H-pyrrolo[2,3-b]pyrazine-7-carboxylic acid ((R)-1,2,2-trimethyl-propyl)-amide] it is 0.00746 µM. With `CC(C)NC(=O)c1c[nH]c2ncc(Oc3ccc4c(c3)[C@H](NC(=O)c3ccccc3)CC4)nc12` [Example I-286, 2-((R)-3-Benzoylamino-indan-5-yloxy)-5H-pyrrolo[2,3-b]pyrazine-7-carboxylic acid isopropylamide], the IC50 was 0.152 µM.

Turning to `CCNC(=O)c1c[nH]c2ncc(Oc3cccc(OC(F)(F)F)c3)nc12` [Example I-246, 2-(3-Trifluoromethoxy-phenoxy)-5H-pyrrolo[2,3-b]pyrazine-7-carboxylic acid ethylamide], the IC50 was determined as 3.46 µM. With `CCc1ccccc1Oc1cnc2[nH]cc(C(=O)NC(C)C)c2n1` [Example I-238, 2-(2-Ethyl-phenoxy)-5H-pyrrolo[2,3-b]pyrazine-7-carboxylic acid isopropylamide], the IC50 was found to be 3.85 µM. The figure for `CONC(=O)c1ccc(-c2cnc3[nH]cc(C(=O)N[C@@H](C)C(C)(C)C)c3n2)s1` [Example I-197, 2-(5-Methoxy-carbamoyl-thiophen-2-yl)-5H-pyrrolo[2,3-b]pyrazine-7-carboxylic acid ((S)-1,2,2-trimethyl-propyl)-amide] is 0.00032 µM; for `CC(C)NC(=O)c1c[nH]c2ncc(Oc3cccc4c3CCCC4)nc12` [Example I-239, 2-(5,6,7,8-Tetrahydro-naphthalen-1-yloxy)-5H-pyrrolo[2,3-b]pyrazine-7-carboxylic acid isopropylamide] it is 5.2 µM; for `CC(C)NC(=O)c1c[nH]c2ncc(Oc3ccc4ccccc4c3)nc12` [Example I-242, 2-(Naphthalen-2-yloxy)-5H-pyrrolo[2,3-b]pyrazine-7-carboxylic acid isopropylamide] it is 1.18 µM. The figure for `C[C@H](NC(=O)c1c[nH]c2ncc(-c3ccc(C(=O)NCc4c(F)cccc4Cl)s3)nc12)C(C)(C)C` [Example I-189, 2-[5-(2-Chloro-6-fluoro-benzylcarbamoyl)-thiophen-2-yl]-5H-pyrrolo[2,3-b]pyrazine-7-carboxylic acid ((S)-1,2,2-trimethyl-propyl)-amide] is 0.0006 µM; for `C[C@H](NC(=O)c1c[nH]c2ncc(-c3cn(-c4cc(Cl)ccc4F)cn3)nc12)C(C)(C)C` [Example I-147, 2-[1-(5-Chloro-2-fluoro-phenyl)-1H-imidazol-4-yl]-5H-pyrrolo[2,3-b]pyrazine-7-carboxylic acid ((S)-1,2,2-trimethyl-propyl)-amide] it is 0.00246 µM; for `C[C@H](NC(=O)c1c[nH]c2ncc(-c3ccc(C(=O)NCC4CCCC4)s3)nc12)C(C)(C)C` [Example I-168, 2-[5-(Cyclo-pentylmethyl-carbamoyl)-thiophen-2-yl]-5H-pyrrolo[2,3-b]pyrazine-7-carboxylic acid ((S)-1,2,2-trimethyl-propyl)-amide] it is 0.00022 µM. The figure for `CC(C)(CO)CNC(=O)c1c[nH]c2ncc(Br)nc12` [Example I-1, 2-Bromo-5H-pyrrolo[2,3-b]pyrazine-7-carboxylic acid (3-hydroxy-2,2-dimethyl-propyl)-amide] is 0.225 µM; for `CC(C)NC(=O)c1c[nH]c2ncc(Oc3ccc(F)cc3F)nc12` [Example I-132, 2-(2,4-Difluoro-phenoxy)-5H-pyrrolo[2,3-b]pyrazine-7-carboxylic acid isopropylamide] it is 0.415 µM; for `CN(C)c1cnc2[nH]cc(C(=O)NCC(C)(C)CO)c2n1` [Example I-4, 2-Dimethylamino-5H-pyrrolo[2,3-b]pyrazine-7-carboxylic acid (3-hydroxy-2,2-dimethyl-propyl)-amide] it is 0.0349 µM. For `CCNC(=O)c1c[nH]c2ncc(Oc3cccc(C#N)c3)nc12` [Example I-245, 2-(3-Cyano-phenoxy)-5H-pyrrolo[2,3-b]pyrazine-7-carboxylic acid ethylamide], the IC50 worked out at 3.31 µM.
